Experimental data from patent US20120294826A1, “METHODS, KITS AND COMPOSITIONS FOR AMELIORATING ADVERSE EFFECTS ASSOCIATED WITH TRANSFUSION OF AGED RED BLOOD CELLS” (priority 2009, published 2012).

Columns and labels:
E. coli = assay: In vitro bacterial growth in plasma from transfused mice; assay type: cell-based
Description: Results shown in FIG. 15A are representative of two experiments. C57BL/6 mice were infused with a sub-clinical dose of LPS (E. coli 0111:B4; 30 μg per mouse by tail vein injection) followed by transfusion of 400 μL of fresh RBCs or stored RBCs. Mice were sacrificed at 24-hour post-transfusion and plasma cytokines measured (n=5 per group). *P=0.008, **P=0.003 as compared to mice infused LPS+ stored RBCs. To obtain the results shown in FIG. 15B, plasma (100 μL) was obtained from mice 2-hours post-transfusion with 400 μL of fresh RBCs (n=15), stored RBCs (n=24), stored RBC-derived supernatant (n=12), washed stored RBCs (n=13), or ghosts prepared from stored RBCs (n=8). Plasma was also obtained from control untransfused mice (n=14) or 24-hours post-transfusion with stored RBCs (n=8). Samples were incubated at 37° C. with shaking with about 1×10^6 CFU of E. coli, as labeled. Bacterial growth was monitored every 30 minutes by absorbance at 600 nm for up to 5 hours. […] To obtain the results shown in FIG. 15C, pooled plasma samples (100 μL) from mice 2 hours after transfusion with 400 μL of fresh RBCs or stored RBCs were supplemented with either ferric citrate (20 μM), sodium citrate (20 μM), bovine serum albumin (BSA; 80 μM), or protoporphyrin IX (20 μM), and then incubated at 37° C. with shaking with ˜1×10^6 CFU of E. coli. Bacterial growth was monitored every 30 minutes by absorbance at 600 nm for up to 5 hours in replicates of 5 per group. […] To obtain the results shown in FIG. 15D, pooled plasma (n=4) were incubated with the iron chelator, DFO (20 μM), or with the iron-chelated form of DFO, ferroxamine (FO) (20 μM) and inoculated with E. coli as shown for the previous experiment. […] To obtain the results shown in FIG. 15E, pooled plasma (n=5) was incubated with the iron chelator, 2,2′-dipyridyl (400 μM), with or without ferric citrate (133 μM) and inoculated with E. coli, as shown for the previous experiment. […] Results are representative of at least 2 experiments and are shown as mean (±SEM). Note that the absence of an error bar is indicative of highly reproducible replicates with pooled plasma.
A pathogenic strain of E. coli, obtained from an anonymous patient with a urinary tract infection, was used. For each experiment, a sample from a frozen stock of this E. coli was inoculated into Nutrient Broth (Difco, BD Biosciences) and grown to mid-log phase (about 3 hours). Bacteria were then washed twice in PBS and re-suspended to about 200,000 colony forming units (CFU)/μL. Five microliters of bacterial suspension were then added to 100 μL of heparinized plasma in a 96-well EIA/RIA plate (Costar, Sigma). Bacterial growth was measured by absorbance at 600 nm. In some experiments, 20 μM of ferric citrate or sodium citrate (Sigma), bovine serum albumin, 2,2′-dipyridyl (all from Sigma-Aldrich), protoporphyrin IX (Frontier Scientific, Logan, Utah), or DFO were added to plasma before bacterial inoculation.
Significance between two means was calculated using a two-tailed Mann-Whitney U test. Significance relevant to bacterial growth in vitro was determined by converting each growth curve to an area under the curve (AUC) value followed by a 2-tailed Mann-Whitney U test to compare mean AUC for each group. A value for P less than 0.05 was considered significant. Statistical analysis was performed using Prism 5 (GraphPad Software, Inc., La Jolla, Calif.).

[1] = in vivo; cited from earlier work
[2] = test system: pro-inflammatory response induced by stored RBC transfusions; assay: DFO or FO infusion immediately before stored RBC transfusion, plasma cytokine/chemokine levels (FIG. 16A, 19); assay type: in vivo, mice; settings: 2 hours
Description: To obtain the results shown in FIG. 16A, mice were pretreated with a PBS vehicle control (n=28) or with 3 mg of DFO, with (n=15) or without (n=31) the addition of equimolar ferric citrate, immediately before transfusion with stored RBCs (400 μL). Mice were sacrificed 2 hours after transfusion, and plasma cytokine levels were measured; *P<0.05; **P<0.01; ***P<0.001 compared with mice infused with PBS vehicle and transfused stored RBCs. To obtain the results shown in FIG. 16B, bioluminescence was quantified for 24 hours after transfusion over the hepatosplenic region of SAA1-luciferase reporter mice transfused with 200 μL of fresh RBCs (n=3; •), the PBS vehicle control and stored RBCs (n=3; ▪), or 3 mg of DFO and stored RBCs (n=6; ▴); P=0.095 at 4 and 6 hours after transfusion comparing vehicle-treated and DFO-treated mice. […]
Mice were untreated or pretreated with 3 mg of DFO immediately before stored RBC transfusion (400 μL; n=14 per group). Mice were sacrificed 2-hours post-transfusion and plasma cytokine/chemokine levels measured. […]
RBCs (200 or 400 μL at 17.0-17.5 g/dL of hemoglobin; 1 or 2 equivalent human units, respectively) were transfused through the retro-orbital plexus of isoflurane-anesthetized mice. […] Survival was calculated by comparing the ratio of Dil- to DiO-labeled RBCs in the sample to the ratio in the transfuse itself. […]

TNF-α = settings: LPS-challenged mice; reference [119]; cited from earlier work
[3] = added to pooled plasma from mice transfused with fresh RBCs, 20 μM (bovine serum albumin 80 μM)

ferric citrate [iron citrate]
bacterial growth (E. coli; [3]): promoted to a similar level as in plasma from mice transfused with stored RBCs

O=C([O-])CC(O)(CC(=O)[O-])C(=O)[O-].[Na+].[Na+].[Na+] [sodium citrate]
bacterial growth (E. coli; [3]): not

CC(=O)N(O)CCCCCNC(=O)CCC(=O)N(O)CCCCCNC(=O)CCC(=O)N(O)CCCCCN [DFO, deferoxamine]
t1/2 [1]: 6 h
plasma IL-6 levels ([2]; 3 mg (about 120 mg/kg) DFO i.v. immediately before stored RBCs, mean±s.e.m., without DFO 212.8±30.8, P=0.005): 98.4 ± 10.1 pg/mL

bovine serum albumin: bovine serum albumin control supplement
bacterial growth (E. coli; [3]): not

CC(=O)N([O-])CCCCCNC(=O)CCC(=O)N([O-])CCCCCNC(=O)CCC(=O)N([O-])CCCCCN.[Fe+3] [FO, ferroxamine]
TNF-α levels (TNF-α): reduced TNF-α levels to a similar extent
bacterial growth (E. coli; 20 μM added to pooled plasma from mice transfused with stored RBCs, absorbance at 600 nm up to 5 hours): prevented the inhibition of bacterial growth
proinflammatory cytokine response ([2]; 3 mg DFO, or FO (equimolar DFO and ferric citrate), before stored RBCs (400 μL)): as effective as DFO

O=C(O)c1ccc(-n2nc(-c3ccccc3O)nc2-c2ccccc2O)cc1 [deferasirox]
t1/2 [1]: 8 to 16 h

c1ccc(-c2ccccn2)nc1 [2,2′-dipyridyl]
bacterial growth (E. coli; 2,2′-dipyridyl 400 μM in pooled plasma from mice transfused with stored RBCs): greater inhibition of bacterial growth
inhibitory effect on bacterial growth (E. coli; 2,2′-dipyridyl preincubated with a one-third molar ratio of ferric citrate (133 μM)): abrogated
